According to patent US9238039B2, “Pyrazolo[1,5-A]pyrimidines for antiviral treatment” (Gilead Sciences, Inc., priority 2010, dated 2016):

System: RSV strain A2
Test: RSV antiviral cytoprotection assay in Hep2 cells (96-well and 384-well format, Cell TiterGlo read-out)
Format: cell-based, Respiratory Syncytial Virus (RSV)
Conditions: human respiratory syncytial virus; for inhibition at 0.5 µM: HEp-2, 0.5 uM; for inhibition at 0.5 µM / inhibition at 1 µM: RSV-induced cytopathic effect in Hep2 cells, calculated from fitted dose response curve, normalized to 0% and 100%; for EC50: HEp-2, RSV-induced cytopathic effects, Hep2 cells, class symbols; for inhibition at 1 µM: HEp-2, 1 uM

| SMILES | EC50 | inhibition at 0.5 µM | inhibition at 1 µM |
| --- | --- | --- | --- |
| CS(=O)(=O)Nc1ccc(Cl)cc1C(=O)N1CCCC[C@H]1c1cc2nc(N3CCC3)cc(N3CCC(O)CC3)n2n1 [Compound 44] | 0.1 to 100 nM | 100% |  |
| Cc1cn2nc([C@@H]3CCCCN3C(=O)c3cc(Cl)ccc3NS(C)(=O)=O)cc2nc1N1CC(C)C1 [Compound 129] | 0.1 to 100 nM | 100% |  |
| Cc1cn2nc([C@@H]3CC[C@H](C)CN3C(=O)c3cc(Cl)ccc3NS(C)(=O)=O)cc2nc1N1CC(N)C1 [Compound 137] | 0.1 to 100 nM | 100% |  |
| C[C@@H]1CN(c2cc(N3CCC3)nc3cc([C@@H]4CCCCN4C(=O)c4cc(Cl)ccc4NS(C)(=O)=O)nn23)C[C@H](C)O1 [Compound 107] | 0.1 to 100 nM | 100% |  |
| Cc1c[nH]c2cc([C@@H]3CCCCN3C(=O)c3cc(F)ccc3NS(C)(=O)=O)nn2c1=O [Compound 17] | 101 to 1000 nM | 75% | 97% |
| Cc1cn2nc([C@@H]3CCCCN3C(=O)c3cc(Cl)ccc3NS(C)(=O)=O)cc2nc1N1CC(OP(=O)(O)O)C1 [Compound 244] | 0.1 to 100 nM | 88% |  |
| CS(=O)(=O)Nc1ccc(Cl)cc1C(=O)N1CCCC[C@H]1c1cc2nc(N3CCC3)ccn2n1 [Compound 43] | 0.1 to 100 nM | 100% |  |
| Cc1cn2nc([C@@H]3CCCCN3C(=O)c3cnccn3)cc2nc1N1CC[C@H](N)C1 [Compound 260] | 0.1 to 100 nM | 99% |  |
| C[C@@H]1CN(c2cc(N3CCC3)nc3cc([C@@H]4CCCCN4C(=O)c4cc(Cl)ccc4NS(C)(=O)=O)nn23)CCN1 [Compound 154] | 0.1 to 100 nM | 100% |  |
| Cc1cn2nc([C@@H]3CCCCN3C(=O)c3cc(Cl)ccc3NS(C)(=O)=O)cc2nc1NCCNCCO [Compound 235] | 0.1 to 100 nM | 99% |  |
| CS(=O)(=O)Nc1ccc(Cl)cc1C(=O)N1CCCC[C@H]1c1cc2nc(C3CCC3)cc(N3CCOCC3)n2n1 [Compound 73] | 0.1 to 100 nM | 99% |  |
| CCc1c(C)[nH]c2cc([C@@H]3CCCCN3C(=O)c3cc(F)ccc3NS(C)(=O)=O)nn2c1=O [Compound 28] | 101 to 1000 nM | 73% | 95% |
| CC(=O)Nc1ccc(Cl)cc1C(=O)N1CCCC[C@H]1c1cc2nc(N3CC(N)C3)c(C)cn2n1 [Compound 248] | 0.1 to 100 nM | 100% |  |
| CCc1ccc(NS(C)(=O)=O)c(C(=O)N2CCCC[C@H]2c2cc3nc(C4CC4)cc(C)n3n2)c1 [Compound 115] | 0.1 to 100 nM | 100% |  |
| Cc1cn2nc([C@@H]3CCCCN3C(=O)c3scnc3C)cc2nc1N1CC[C@H](N)C1 [Compound 287] | 1000 to 10000 nM |  |  |
| CS(=O)(=O)Nc1ccc(Cl)cc1C(=O)N1CCCC[C@H]1c1cc2nc(N3CC(N)C3)cc(N3CCOCC3)n2n1 [Compound 68] | 0.1 to 100 nM | 100% |  |
| C[C@H]1CC[C@@H](c2cc3nc(N4CC(N)C4)cc(N4CCOCC4)n3n2)N(C(=O)c2cc(Cl)ccc2NS(C)(=O)=O)C1 [Compound 142] | 0.1 to 100 nM | 100% |  |
| CS(=O)(=O)Nc1ccc(Cl)cc1C(=O)N1CCCC[C@H]1c1cc2nc(N3CC(O)C3)cc(N3CCOCC3)n2n1 [Compound 69] | 0.1 to 100 nM | 100% |  |
| Cc1nc2cc([C@@H]3CCCCN3C(=O)c3ccccc3NS(C)(=O)=O)nn2c(N(C)C)c1C [Compound 100] | 0.1 to 100 nM | 96% |  |

| SMILES | EC50 | inhibition at 0.5 µM | inhibition at 1 µM |
| --- | --- | --- | --- |
| Cc1cn2nc([C@@H]3CCCCN3C(=O)c3cc(Cl)ccc3NS(C)(=O)=O)cc2nc1N1CCC(O)CC1 [Compound 218] | 101 to 1000 nM | 72% |  |
| Cc1cn2nc([C@@H]3CCCCN3C(=O)c3cscn3)cc2nc1N1CC[C@H](N)C1 [Compound 270] | 101 to 1000 nM | 82% |  |
| Cc1ccc(NS(C)(=O)=O)c(C(=O)N2CCCC[C@H]2c2cc3nc(C4CC4)cc(N4CCOCC4)n3n2)c1 [Compound 62] | 0.1 to 100 nM | 100% |  |
| Cc1cc(C(=O)N2CCCC[C@H]2c2cc3nc(N4CC[C@H](N)C4)c(C)cn3n2)no1 [Compound 264] | 101 to 1000 nM | 53% |  |
| Cc1cc(N2CC(O)C2)nc2cc([C@@H]3CCCCN3C(=O)c3cc(Cl)ccc3NS(C)(=O)=O)nn12 [Compound 40] | 0.1 to 100 nM | 100% |  |
| Cc1cn2nc([C@@H]3CCCCN3C(=O)c3ccccc3O)cc2nc1N1CC[C@H](N)C1 [Compound 274] | 0.1 to 100 nM | 100% |  |
| Cc1cc(C)cc(C(=O)N2CCCC[C@H]2c2cc3nc(N4CC[C@H](N)C4)c(C)cn3n2)c1 [Compound 160] | 0.1 to 100 nM | 100% |  |
| Cc1cccc(C(=O)N2CCCC[C@H]2c2cc3nc(N4CC[C@H](N)C4)c(C)cn3n2)c1 [Compound 157] | 0.1 to 100 nM | 100% |  |
| Cc1nc2cc([C@@H]3CCCCN3C(=O)c3cc(Cl)ccc3NS(C)(=O)=O)nn2c(N(C)C)c1C [Compound 99] | 0.1 to 100 nM | 99% |  |
| CCn1cc(C(=O)N2CCCC[C@H]2c2cc3nc(N4CC[C@H](N)C4)c(C)cn3n2)cn1 [Compound 281] | 101 to 1000 nM | 37% |  |
| Cc1cc(C2CC2)nc2cc([C@@H]3CCCCN3C(=O)c3cc(Cl)ccc3NS(C)(=O)=O)nn12 [Compound 60] | 0.1 to 100 nM | 100% |  |
| Cc1cn2nc([C@@H]3CCCCN3C(=O)c3cc(Cl)ccc3NS(C)(=O)=O)cc2nc1N1CCC[C@H]1CN1CCCC1 [Compound 206] | 0.1 to 100 nM | 99% |  |
| CN(C)CCN(C)c1cc(N2CCC2)nc2cc([C@@H]3CCCCN3C(=O)c3cc(Cl)ccc3NS(C)(=O)=O)nn12 [Compound 175] | 0.1 to 100 nM | 100% |  |
| Cc1ccc(C(=O)N2CCCC[C@H]2c2cc3nc(N4CC[C@H](N)C4)c(C)cn3n2)s1 [Compound 286] | 0.1 to 100 nM | 100% |  |
| CN1CCN(c2cc(N3CC(O)C3)nc3cc([C@@H]4CCCCN4C(=O)c4cc(Cl)ccc4NS(C)(=O)=O)nn23)CC1 [Compound 54] | 0.1 to 100 nM | 100% |  |
| Cc1[nH]c2cc([C@@H]3CCCCN3C(=O)c3ccccc3NC(=O)C3CC3)nn2c(=O)c1C [Compound 14] | 0.1 to 100 nM | 96% | 98% |
| Cc1cn2nc([C@@H]3CCCCN3C(=O)c3cc(Cl)ccc3NS(C)(=O)=O)cc2nc1N1CC(Oc2ccccn2)C1 [Compound 212] | 101 to 1000 nM | 88% |  |
| CC(=O)Nc1ccc(C)cc1C(=O)N1CCCC[C@H]1c1cc2nc(N3CC[C@H](N)C3)c(C)cn2n1 [Compound 169] | 0.1 to 100 nM | 100% |  |
| Cc1ccc(NS(C)(=O)=O)c(C(=O)N2CCCC[C@H]2c2cc3nc(C)c(C)c(N4CCCCC4)n3n2)c1 [Compound 236] | 0.1 to 100 nM | 98% |  |

Further lines, with some results ahead:

| EC50 | SMILES | inhibition at 0.5 µM | inhibition at 1 µM |
| --- | --- | --- | --- |
| 0.1 to 100 nM | CCOc1cccc(C(=O)N2CCCC[C@H]2c2cc3nc(N4CC[C@H](N)C4)c(C)cn3n2)c1 [Compound 319] | 100% |  |
| 0.1 to 100 nM | Cc1cn2nc([C@@H]3CCCCN3C(=O)c3ccc(C#N)cn3)cc2nc1N1CC[C@H](N)C1 [Compound 290] |  |  |
| 0.1 to 100 nM | Cc1cc(Cl)ccc1C(=O)N1CCCC[C@H]1c1cc2nc(N3CC[C@H](N)C3)c(C)cn2n1 [Compound 333] | 99% |  |
| 0.1 to 100 nM | CCn1nc(C)cc1C(=O)N1CCCC[C@H]1c1cc2nc(N3CC[C@H](N)C3)c(C)cn2n1 [Compound 302] | 100% |  |
| 0.1 to 100 nM | Cc1ccc(C(=O)N2CCCC[C@H]2c2cc3nc(N4CC[C@H](N)C4)c(C)cn3n2)cc1Cl [Compound 332] | 100% |  |
| 0.1 to 100 nM | Cc1cn2nc([C@@H]3CCCCN3C(=O)c3cc(C4(O)CCCC4)on3)cc2nc1N1CC[C@H](N)C1 [Compound 405] | 99% |  |
| 0.1 to 100 nM | Cc1cn2nc([C@@H]3CCCCN3C(=O)c3cccc4c3OCC4)cc2nc1N1CC[C@H](N)C1 [Compound 317] | 100% |  |
| 0.1 to 100 nM | Cc1cn2nc([C@@H]3CCCCN3C(=O)c3cccc(Cl)n3)cc2nc1N1CC[C@H](N)C1 [Compound 305] | 100% |  |
| 0.1 to 100 nM | Cc1cn2nc([C@@H]3CCCCN3C(=O)c3ccc(Cl)c(O)c3)cc2nc1N1CC[C@H](N)C1 [Compound 340] | 100% |  |
| 0.1 to 100 nM | Cc1cn2nc([C@@H]3CCCCN3C(=O)c3ccccc3-c3cccnc3)cc2nc1N1CC[C@H](N)C1 [Compound 409] | 99% |  |
| 0.1 to 100 nM | Cc1cn2nc([C@@H]3CCCCN3C(=O)c3cc(C(F)(F)F)n(C)n3)cc2nc1N1CC[C@H](N)C1 [Compound 400] | 100% |  |
| 0.1 to 100 nM | Cc1cn2nc([C@@H]3CCCCN3C(=O)c3ccc(Cn4cccn4)o3)cc2nc1N1CC[C@H](N)C1 [Compound 396] | 99% |  |
| 0.1 to 100 nM | Cc1cn2nc([C@@H]3CCCCN3C(=O)c3cccc(OC(C)C)c3)cc2nc1N1CC[C@H](N)C1 [Compound 365] | 100% |  |
| 101 to 1000 nM | Cc1cn2nc([C@@H]3CCCCN3C(=O)c3cccc4ccccc34)cc2nc1N1CC[C@H](N)C1 [Compound 338] | 72% |  |
| 0.1 to 100 nM | Cc1cn2nc([C@@H]3CCCCN3C(=O)c3cc(-c4cccs4)n[nH]3)cc2nc1N1CC[C@H](N)C1 [Compound 404] | 100% |  |
| 0.1 to 100 nM | Cc1cc(C(=O)N2CCCC[C@H]2c2cc3nc(N4CC[C@H](N)C4)c(C)cn3n2)c(Cl)nn1 [Compound 341] | 75% |  |
| 0.1 to 100 nM | Cc1cn2nc([C@@H]3CCCCN3C(=O)c3cc(C)n(C(F)F)n3)cc2nc1N1CC[C@H](N)C1 [Compound 355] | 96% |  |
| 0.1 to 100 nM | Cc1cn2nc([C@@H]3CCCCN3C(=O)c3ccnc(-n4cnnc4)c3)cc2nc1N1CC[C@H](N)C1 [Compound 388] | 100% |  |
